Test results reported in patent US7879886B2, “Iron binding agents” (University of Florida Research Foundation, Inc., priority 1998, dated 2011).
Like-named read-outs stand apart in the source and are kept apart here.

Legend:
[1] = administered to humans; cited from earlier work
malarial parasites = experiment: Impact on malarial parasites in vitro (48 h exposure, 48 h after removal, percent parasitemia); format: cell-based, Plasmodium
From the text: Studies can be done on the developmental stages and morphology of the malarial parasite in vitro; the minimum effective concentration required for cytotoxicity can be shown. The target structures include the nuclear envelope, the membrane of the food vacuole, accumulation of electron-dense substances in the mitochondria, undigested materials, and dilation of the endoplasmic reticulum.
In order to determine the concentration at which a compound is cytostatic and cytotoxic, the parasites are exposed to the drug using at least two different concentrations. After 48 h the chelator is removed, and the parasites are incubated for an additional 48 h. The percent parasitemia is determined at both time points (48 and 96 h). The effects of the various compounds on malarial parasites seem quite varied. For the purposes of comparison, DFO can serve as the positive control. […] However, at a concentration of 10^−4 M, DFO is cytotoxic; the plasmodia die during the 48-h incubation with the compound.
The compounds designated as 8 and 22 in Table I are active in this in vitro assay. Others can be similarly tested.

[2] = cited from earlier work
[3] = Iron clearance efficiency in the normal (not iron-loaded) bile duct-cannulated Sprague-Dawley rat; format: in vivo
From the text: (§1) One screen for efficacy is the normal (not iron-loaded) Sprague-Dawley rat with a cannulated bile duct. In this model, collection of bile and urine after oral or parenteral administration of a chelator permits the rapid determination of the magnitude and route(s) of excretion. The iron-loaded Cebus apella monkey is used as a better screen, however. To date, the behavior of iron chelators in this primate model has been-quantitatively predictive of both the magnitude and routes of iron clearance after human administration.
(§2) The primary measure of activity is the efficiency of the compound, as assessed in both rodent and primate models and compared with sc DFO. Compound efficiency is a comparative evaluation of how much iron excretion a chelator promotes relative to the theoretical amount. For example, the hexacoordinate chelator DFO forms 1:1 iron complexes with a formation constant of 3×10^30 M^−1 (Anderegg et al., Helv. Chim. Acta 46: 1409-1422 (1963)); if the efficiency were 100%, one mmol of DFO administered to an animal would cause one mmol of the iron complex to be excreted. In fact, only 5% of the calculated iron is excreted when DFO is administered to humans (Kirking et al., Clin. Pharmacol. 10:775-783 (1991)). In the case of the DFT analogues, the efficiency calculation is based on the formation of a 2:1 complex with a formation constant assumed to be similar to that of the parent compound, 4×10^29 M^−1 (Anderegg et al., J. Chem. Soc., Chem. Commun. 1194-1196 (1990).

[4] = Iron clearance efficiency in the iron-loaded Cebus apella monkey; format: in vivo
From the text: as §1, §2

SMILES	% Efficiency of Iron Clearance ([3]; route not given)	% Efficiency of Iron Clearance ([3]; po)	% Efficiency of Iron Clearance ([3]; sc)	% Efficiency of Iron Clearance ([4]; 150 μmol/kg po) [%]	% Efficiency of Iron Clearance ([4]; 300 μmol/kg po)	also measured
CC(=O)N(O)CCCCCNC(=O)CCC(=O)N(O)CCCCCNC(=O)CCC(=O)N(O)CCCCCN [DFO]						Efficiency: calculated iron excreted [1]: 5%; Effect on plasmodia (malarial parasites; 48-h incubation at 10^−4 M): cytotoxic; Malarial growth after the compound is removed (malarial parasites; after 48-h exposure at 10^−5 M, compound removed): normal growth resumes; Effect on malarial growth (malarial parasites; initial 48-h continuous exposure at 10^−5 M): inhibits malarial growth; Formation constant of iron complex ([2]; 1:1 iron complex): 3e+30 M⁻¹
O=C(O)CC[C@H]1CSC(c2ccccc2O)=N1 [17(S), (S)-4,5-dihydro-2-(2-hydroxyphenyl)-4-thiazolepropanoic acid]	≦0.5%					
O=C(O)[C@H]1CSC(c2ncccc2O)=N1 [2(S), (S)-desmethyldesferrithiocin]		2.4 ± 0.56 (po) %	1.8 ± 0.7 (sc) %	4.8 ± 2.7	8.0 ± 2.5%	% Efficiency of Iron Clearance ([4]; 300 μmol/kg sc): 8.3 ± 2.7%
O=C(C1CSC(c2ncccc2O)=N1)N(O)Cc1ccccc1 (stereo not shown) [Compound 24]		1 ± 0.1 (po) %	1.4 ± 0.8 (sc) %		≦0.5%	% Efficiency of Iron Clearance ([4]; 300 μmol/kg sc): ≦0.5%
C[C@]1(C(=O)O)CSC(c2ncccc2O)=N1 [1(S), desferrithiocin, reference compound]	5.5 ± 3.2%			16.1 ± 8.5		Formation constant of iron complex ([2]; 2:1 complex): 4e+29 M⁻¹
O=C(O)C[C@H]1CSC(c2ccccc2O)=N1 [16(S), (S)-4,5-Dihydro-2-(2-hydroxyphenyl)-4-thiazoleacetic acid]	≦0.5%					
O=C(O)[C@H]1CSC(Cc2ccccc2O)=N1 [15(S), (S)-4,5-Dihydro-2-(2-hydroxyphenylmethyl)-4-thiazolecarboxylic acid]	≦0.5%					
CN(O)C(=O)[C@H]1CSC(c2ncccc2O)=N1 [Compound 22, (S)-desmethyldesferrithiocin, N-methylhydroxamate]		3.1 ± 0.4 (po) %	5.3 ± 0.7 (sc) %	6.9 ± 3.0	13.2 ± 7.7%	Activity in the in vitro malarial parasite assay (malarial parasites): active; % Efficiency of Iron Clearance ([4]; 150 μmol/kg sc): 11.7 ± 5.5%
C[C@]1(C(=O)O)CSC(c2ccc(O)cc2O)=N1 [28(S), 4′-hydroxydesazaDFT]	≦0.5%			13.4 ± 5.8		% Efficiency of Iron Clearance ([4]; 75 μmol/kg po): 17.7 ± 3.9%
O=C(O)C1CSC(c2ccc(O)cc2O)=N1 [5(S), 4,5-Dihydro-2-(2-,4-dihydroxyphenyl)-4-thiazolecarboxylic acid]		2.4 ± 0.9 (po) %		4.2 ± 1.4	5.3 ± 1.7%	% Efficiency of Iron Clearance ([4]; 150 μmol/kg in H2O sc): 5.6 ± 0.9%; % Efficiency of Iron Clearance ([4]; 300 μmol/kg in H2O po): 4.8 ± 1.4%
O=C(O)c1ccc(C2=N[C@@H](C(=O)O)CS2)c(O)c1 [7(S), (S)-4,5-Dihydro-2-(2-hydroxy-4-carboxyphenyl)-4-thiazolecarboxylic acid]	≦0.5%					
Oc1cccnc1C1=N[C@@H](N(O)CCOCCOCCN(O)[C@H]2CSC(c3ncccc3O)=N2)CS1 [Compound 25, (S,S)-N^1,N^8-bis[4,5-dihydro-2-(3-hydroxy-2-pyridinyl)-4-thiazoyl]-N^1,N^8-dihydroxy-3,6-dioxa-1,8-octanediamine]		4.6 ± 2.1 (po) %	20.6 ± 1.3 (sc) %			
COc1cccc(C2=N[C@@H](C(=O)O)CS2)c1O [6(S), (S)-4,5-dihydro-2-(2-hydroxy-3-methoxyphenyl)-4-thiazolecarboxylic acid]		0.9 ± 0.3 (po) %	0.5 ± 0.9 (sc) %			
O=C(O)C1CCSC(c2ncccc2O)=N1 [14(S), 2-(3-hydroxy-2-pyridinyl)4H-5,6-dihydro-1,3-thiazine-4-carboxylic acid]	≦0.5%					
O=C(O)C1CSC(c2ccc(O)cc2O)=N1 [5(R), 4,5-Dihydro-2-(2-,4-dihydroxyphenyl)-4-thiazolecarboxylic acid]	≦0.5%			1.7 ± 0.8		
C[C@]1(C(=O)O)CSC(c2ccccc2O)=N1 [9(S)]		2.7 ± 0.5 (po) %			13.1 ± 4%	% Efficiency of Iron Clearance ([4]; 75 μmol/kg po): 21.5 ± 12%; % Efficiency of Iron Clearance ([4]; 300 μmol/kg sc): 43.3 ± 8.5%
